What was measured:
eye = conditions: rabbit, in vivo
[1] = compatibility / gelling effect of ingredients in Gelrite solution; assay type: physicochemical; conditions: 0.1 mg/ml added; can be eliminated by adding a small amount of acetic acid

Substance: gellan gum
- eye irritation (eye): not regarded as an eye irritant

Substance: benzalkonium chloride
- gelling effect in a Gelrite solution [1]: slight gelling effect
